We go through 1 compound from patent publication US20230000842A1, “METHODS OF TREATING CARTILAGE DISORDERS THROUGH INHIBITION OF CLK AND DYRK” (SAMUMED, LLC, priority 2019, published 2023).

Structures are written as SMILES. pEC50: −log10 of the molar value.

Experiment [1] relates to cartilage of MIA injected rats. Kind of experiment: Monosodium iodoacetate (MIA) injection induced OA model, cartilage Western blot. Particulars: 4 days after single IA injection. Type of experiment: in vivo, rat. How it is done: Western blots for phospho-SRSF, SRSF1, AXIN2, phospho-NF-κB, total NFκB, phospho-STAT3, total STAT3, phospho-FOXO1 and total FOXO1 in the cartilage, with β-actin as a loading control.
Male Sprague Dawley (SD) rats (250 g±30 g) (Charles River, Wilmington, Mass.) were used for all animal studies. All animals were treatment naïve at the start of the studies. Procedures were performed during the hours of 8 am-5 pm on weekdays in a sterile hood in the vivarium. Rats were housed in individual ventilated cages (≤3 per cage) under the following conditions:
For cytokine, MMP, histology (H&E and Safranin O-Fast Green staining), OARSI scores and weight bearing measurements: At 10 weeks postnatal age, 20 rats were subjected to MIA injection (3 mg in 50 μL). Each rat was anesthetized with an isoflurane/O2 mixture until the flexor withdrawal reflex was abolished. The surgeon wore a face mask, hair net, lab coat and shoe covers, and gloves that were disinfected with betadine or chlorhexidine between animals. All tools were sterilized with an autoclave. MIA was dissolved in 0.9% (w/v) saline (3 mg in 50 μL). The solution was filtrated with 0.22 μm membrane before administration. After being shaved and disinfected with betadine or chlorhexidine solution, the right knees were injected intra-articularly with 50 μL of MIA using 0.5-in 26-gauge needle, while the contralateral knees received an IA injection of 0.9% saline. After injection, the injected surface was washed with sterile saline solution. All the rats were allowed to move freely in plastic cages until their necropsies at different time points post-MIA injection.
On day 11, animals were sacrificed using Carbon dioxide (CO2). Cartilage was isolated, flash frozen in liquid Nitrogen and stored at −80° C. until processing for protein extraction.
(Immunoblotting shows a protein as a band on a membrane.)

Experiment [2] concerns Wnt pathway gene expression in hMSCs. The experiment is described as follows: Nanostring nCounter Wnt Pathways panel in hMSCs. Type of experiment: cell-based, human. Particulars: >2-fold change, p<0.05, FDR corrected. How it is done:
FIGS. 2D and 2E depict gene expression changes of selected genes from FIG. 2C by qRT-PCR (n=3, Mean±95% CI, *p<0.05, **p<0.01, ***p<0.001, one-way ANOVA). […] Downregulation of AXIN2, TCF7, LRP5, BAMBI, NKD1, PAI-1, LRP6, FZD6, FZD7, PITX2, ERBB2, and CTGF gene expression and increased levels of Wnt pathway inhibitors SFRP2 and DACT1 were determined by qPCR.
Fifty nanograms of RNA was hybridized with Tagsets and probe pools from the nCounter® Vantage 3D™ Wnt Pathways Panel (NanoString Technologies) for 16 hrs at 67° C. Hybridized samples were ran on a nCounter® SPRINT Profiler (NanoString Technologies). Nanostring gene counts were normalized by the geometric mean of all housekeeping genes by nSolver (v3.0). P-values from normalized counts were calculated by an independent t-test and adjusted by the false discovery rate (FDR) method (Benjamini & Hochberg) to correct for multiple comparisons using R (v3.4.2). Data was plotted using R (v3.4.2).

The subject of experiment [3] is Wnt pathway activity (SW480 colon carcinoma cells stably expressing the Sp5-Luc reporter). The experiment is described as follows: Wnt pathway activity screening assay (Sp5-Luc reporter gene assay). Particulars: Homo sapiens, SW480. For orientation: In a reporter assay the amount or activity of a reporter protein is the signal.
Description: The screening assay for Wnt pathway activity is described as follows.
SW480 colon carcinoma cells were transduced with a lentiviral vector expressing luciferase with a human Sp5 promoter consisting of a sequence of eight TCF/LEF binding sites. […] These stably transduced SW480 cells were expanded in cell culture and used for all further screening activities. Each compound was dissolved in DMSO as a 10 mM stock and used to prepare compound source plates. Serial dilution (1:3, 10-point dose-response curves starting from 10 μM) and compound transfer was performed using the ECHO 550 (Labcyte, Sunnyvale, Calif.) into 384-well white solid bottom assay plates (Greiner Bio-One) with appropriate DMSO backfill for a final DMSO concentration of 0.1%. […] Following incubation, 15 μl of BriteLite Plus luminescence reagent (Perkin Elmer) was added to each well of the 384-well assay plates. The plates were placed on an orbital shaker for 2 min and then luminescence was quantified using the Envision (Perkin Elmer) plate reader.

The term pEC50 denotes the negative decadic logarithm of the EC50, by convention in mol/L. Lower therefore signals a high EC50.

On to `CC(C)CC(=O)Nc1cncc(-c2ccc3[nH]nc(-c4nc5c(-c6cccc(F)c6)cncc5[nH]4)c3c2)c1` [compound 123], for which, in experiment [1], the “protein levels of total FOXO1” value is reported as “increased”; the “protein levels of total NF-κB” value was “decreased”; the “total protein levels of SRSF1 and STAT3” value is listed as “no changes”. The “phosphorylation of SRSF, NF-κB, STAT3, and FOXO1” value in experiment [1] (compared to vehicle) was “decreased”. Further, in experiment [2], the “number of Wnt pathway genes downregulated” value is recorded as 19 genes and the “number of Wnt pathway genes upregulated” value worked out at 9 genes. In experiment [3], this compound gave a pEC50 of 8.47.
